This experiment addresses T1, h5-HT4b (Homo sapiens, UniProt Q13639).
T1 construct: expressed in transfected cells; host or cells: HEK 293 (clone 9), membrane preparation
Briefly: 5HT4 antagonism: [3H]GR113808 binding to membranes of h5-HT4b-HEK 293 clone 9 cells. The settings on record: displacement of [3H]GR113808 0.1 nM, h5-HT4b-HEK 293 membranes, 30 min at 25° C.; read-out: pIC50 (5HT4 antagonistic data) (converted). The protocol: h5-HT4b-HEK 293 clone 9 cells were cultured in 150 mm Petri dishes and washed twice with cold PBS. The cells were then scraped from the plates and suspended in 50 mM Tris-HCl buffer, pH 7.4 and harvested by centrifugation at 23,500 rpm for 10 minutes. The pellet was resuspended in 5 mM Tris-HCl, pH 7.4 and homogenized with an Ultra Turrax homogenizer. The membranes were collected by centrifugation at 30,000 rpm for 20 min, resuspended in 50 mM Tris-HCl pH 7.4 and stored at −80° C. For the experiment, assay mixtures (0.5 ml) contained 50 μl of the tritiated ligand (5-HT4 antagonist [^3H]GR113808 0.1 nM) and 0.4 ml membrane preparation (15 μg protein/ml). 50 μl of 10% DMSO was added for total binding. 50 μl of 1 μM of (+)-trans-(1-butyl-3-hydroxy-4-piperidinyl)methyl 8-amino-7-chloro-2,3-dihydro-1,4-benzodioxin-5-carboxylate (a proprietary 5HT4 agonist of Janssen Pharmaceutica) was added for determination of non-specific binding.
The [^3H]GR113808 assay buffer was 50 mM HEPES-NaOH, pH 7.4. The mixtures were incubated for 30 min at 25° C. The incubation was terminated by filtration over a Unifilter 96 GF/B presoaked in 0.1% polyethylenimine, followed by six washing steps with 50 mM HEPES-NaOH, pH 7.4.
Background: In a radioligand displacement assay an active substance lowers the binding of a labelled ligand.

T1 sequence (Q13639 whole entry): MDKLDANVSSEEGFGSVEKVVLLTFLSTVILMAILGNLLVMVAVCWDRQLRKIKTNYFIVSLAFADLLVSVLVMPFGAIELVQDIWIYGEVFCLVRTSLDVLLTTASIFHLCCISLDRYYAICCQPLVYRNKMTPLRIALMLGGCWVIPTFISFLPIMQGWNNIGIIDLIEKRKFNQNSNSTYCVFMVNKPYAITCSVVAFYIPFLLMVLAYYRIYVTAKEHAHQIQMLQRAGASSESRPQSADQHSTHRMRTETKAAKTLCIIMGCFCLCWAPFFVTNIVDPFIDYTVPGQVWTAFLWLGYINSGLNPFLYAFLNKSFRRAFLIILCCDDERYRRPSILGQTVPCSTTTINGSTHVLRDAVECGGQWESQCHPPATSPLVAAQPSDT

As to `CNc1cc2c(c(C(=O)NC[C@@H]3CCN(CCNc4nccnc4C)C[C@H]3O)c1)OCCCO2` [compound 95], the IC50 was 36.3 nM.
Consider `CC(C)OCCCN1CC[C@@H](CNC(=O)c2cc(N)c(Cl)c3c2OCCCO3)[C@H](O)C1` [compound 96], for which the IC50 was 6.17 nM.
Regarding `CNc1cc2c(c(C(=O)NC[C@@H]3CCN(CCCCO)C[C@H]3O)c1)OCCO2` [compound 97], the IC50 was 15.8 nM.
For the molecule `Nc1cc2c(c(C(=O)NC[C@@H]3CCN(CCCCO)C[C@H]3O)c1)OCCO2` [compound 98], the IC50 was 14.8 nM.
As for `CS(=O)(=O)NCCN1CC[C@@H](CNC(=O)c2cc(N)cc3c2OCCCO3)[C@H](O)C1` [compound 99], the IC50 is 72.4 nM.
Take `CNc1cc(C(=O)NC[C@@H]2CCN(CCCO)C[C@H]2O)c2c(c1Cl)OCCO2` [compound 100]: the IC50 was 16.6 nM.
In the case of `CNc1cc2c(c(C(=O)NC[C@@H]3CCN(CCCOC(C)C)C[C@H]3O)c1)OCCCO2` [compound 101], the IC50 is 50.1 nM.
On to `CNc1cc2c(c(C(=O)NC[C@@H]3CCN(CCNS(C)(=O)=O)C[C@H]3O)c1)OCCCO2` [compound 102], for which the IC50 is 120 nM.
To `CNc1cc2c(c(C(=O)NC[C@@H]3CCN(CCNS(C)(=O)=O)C[C@H]3O)c1)OCCO2` [compound 103] belongs 22.9 nM; to `CNCCCCN1CC[C@@H](CNC(=O)c2cc(N)cc3c2OCCO3)[C@H](O)C1` [compound 104], 33.9 nM.
Consider `CNc1cc(C(=O)NC[C@@H]2CCNC[C@H]2O)c2c(c1Cl)OCCO2` [compound 105], for which the IC50 is 437 nM.
Turning to `CNCCCCN1CC[C@@H](CNC(=O)c2cc(N)cc3c2OCCCO3)[C@H](O)C1` [compound 106], the IC50 was 363 nM.
Take `Nc1cc2c(c(C(=O)NC[C@@H]3CCN(CCC4OCCO4)C[C@H]3O)c1)OCCO2` [compound 108]: the IC50 is 25.7 nM.
As for `COCCCN1CC[C@@H](CNC(=O)c2cc(N)cc3c2OCCO3)[C@H](O)C1` [compound 109], the IC50 is 36.3 nM.
Regarding `CCCCN1CC[C@@H](CNC(=O)c2cc(N)cc3c2OCCCO3)[C@H](O)C1` [compound 110], the IC50 was 19.1 nM.
Regarding `COCCCN1CC[C@@H](CNC(=O)c2cc(N)cc3c2OCCCO3)[C@H](O)C1` [compound 111], the IC50 is 20 nM.
For the molecule `Nc1cc2c(c(C(=O)NC[C@@H]3CCN(CCCO)C[C@H]3O)c1)OCCCO2` [compound 112], the IC50 is 13.2 nM.
For `CCCCN1CC[C@@H](CNC(=O)c2cc(NC)cc3c2OCCCO3)[C@H](O)C1` [compound 114], the IC50 was 8.32 nM.
`CNc1cc2c(c(C(=O)NC[C@@H]3CCN(CCCOC)C[C@H]3O)c1)OCCO2` [compound 115]: the IC50 was 16.2 nM.
To `CCCCN1CC[C@@H](CNC(=O)c2cc(NC)cc3c2OCCO3)[C@H](O)C1` [compound 116] belongs 16.2 nM.
Consider `Nc1cc2c(c(C(=O)NC[C@@H]3CCN(CCCO)C[C@H]3O)c1)OCCO2` [compound 117], for which the IC50 is 1.55 nM.
Consider `Nc1cc2c(c(C(=O)NC[C@@H]3CCN(CCC4OCCO4)C[C@H]3O)c1)OCCCO2` [compound 118], for which the IC50 was 60.3 nM.
To `CCCCN1CC[C@@H](CNC(=O)c2cc(COC)cc3c2OCCCO3)[C@H](O)C1` [compound 119] belongs 8.91 nM; to `N#CCc1cc2c(c(C(=O)NC[C@@H]3CCN(CCCO)C[C@H]3O)c1)OCCCO2` [compound 120], 43.7 nM.
For the molecule `N#CCc1cc2c(c(C(=O)NC[C@@H]3CCNC[C@H]3O)c1)OCCCO2` [compound 121], the IC50 was 708 nM.
Turning to `COCc1cc2c(c(C(=O)NC[C@@H]3CCN(CCCO)C[C@H]3O)c1)OCCCO2` [compound 122], the IC50 is 32.4 nM.
As for `N#CCc1cc2c(c(C(=O)NC[C@@H]3CCN(CCC4OCCO4)C[C@H]3O)c1)OCCCO2` [compound 123], the figure is 43.7 nM; as for `COCCCN1CC[C@@H](CNC(=O)c2cc(COC)cc3c2OCCCO3)[C@H](O)C1` [compound 124], 26.9 nM; as for `COCc1cc2c(c(C(=O)NC[C@@H]3CCN(CCC4OCCO4)C[C@H]3O)c1)OCCCO2` [compound 126], 18.2 nM.

(Values after patent US7638535B2, “4-(aminomethyl)-piperidine benzamides as 5HT4-antagonists” (Janssen Pharmaceutica N.V., priority 2003, dated 2009).)
